From ChEMBL document CHEMBL2321733, “[3a,4]-Dihydropyrazolo[1,5a]pyrimidines: Novel, Potent, and Selective Phosphatidylinositol-3-kinase β Inhibitors” (ACS Med Chem Lett, 2013) come the findings set out here.

Data set [1] in a line: Clearance in monkey. Format: ADME, organism-based, Macaca mulatta. Conditions: rhesus monkey, in vivo.
Data set [2] addresses Phosphatidylinositol 4,5-bisphosphate 3-kinase catalytic subunit gamma isoform (Homo sapiens, UniProt P48736). The data set is described as follows: Inhibition of PI3Kgamma (unknown origin).
A short description of data set [3]: Plasma protein binding in human serum by equilibrium dialysis. Conditions: read-out: PPB (converted). Format: ADME, cell-free. (Equilibrium dialysis compares concentrations on both sides of a semipermeable membrane.)
In data set [4] the target is T1, Phosphatidylinositol 4,5-bisphosphate 3-kinase catalytic subunit beta isoform (Homo sapiens, UniProt P42338). The data set is described as follows: Inhibition of PI3Kbeta (unknown origin).
T1 sequence (P42338 whole entry, canonical isoform): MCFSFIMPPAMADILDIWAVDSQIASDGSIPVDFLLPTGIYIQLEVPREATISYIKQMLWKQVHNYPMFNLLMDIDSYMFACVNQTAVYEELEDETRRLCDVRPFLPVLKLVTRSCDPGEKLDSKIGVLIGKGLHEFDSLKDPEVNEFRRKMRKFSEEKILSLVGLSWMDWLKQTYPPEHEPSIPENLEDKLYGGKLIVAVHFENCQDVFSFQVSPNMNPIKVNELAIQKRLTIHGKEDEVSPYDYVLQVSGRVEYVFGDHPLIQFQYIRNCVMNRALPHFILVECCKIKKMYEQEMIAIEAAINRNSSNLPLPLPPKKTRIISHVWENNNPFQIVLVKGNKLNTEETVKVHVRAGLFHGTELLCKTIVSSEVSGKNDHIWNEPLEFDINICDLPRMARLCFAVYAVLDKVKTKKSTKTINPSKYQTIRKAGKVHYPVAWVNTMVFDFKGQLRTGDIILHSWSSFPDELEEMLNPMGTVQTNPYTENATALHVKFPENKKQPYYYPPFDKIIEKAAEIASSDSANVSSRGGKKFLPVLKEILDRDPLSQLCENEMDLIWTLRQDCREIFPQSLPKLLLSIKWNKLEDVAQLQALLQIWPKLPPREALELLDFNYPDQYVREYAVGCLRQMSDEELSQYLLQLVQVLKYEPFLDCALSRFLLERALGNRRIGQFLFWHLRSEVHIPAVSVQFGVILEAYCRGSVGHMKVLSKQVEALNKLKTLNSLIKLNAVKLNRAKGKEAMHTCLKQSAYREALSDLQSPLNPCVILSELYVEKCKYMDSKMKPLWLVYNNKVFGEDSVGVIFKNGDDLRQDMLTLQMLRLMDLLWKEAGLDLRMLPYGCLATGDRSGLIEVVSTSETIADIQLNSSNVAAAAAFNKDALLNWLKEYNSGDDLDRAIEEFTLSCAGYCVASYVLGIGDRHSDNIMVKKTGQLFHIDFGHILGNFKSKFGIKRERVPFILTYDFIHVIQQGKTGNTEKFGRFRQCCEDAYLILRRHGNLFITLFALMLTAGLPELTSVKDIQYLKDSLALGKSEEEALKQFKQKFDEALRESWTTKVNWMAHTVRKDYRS
The test system of data set [5] is Mus musculus. Put plainly: Dose normalized AUC in po dosed mouse. Conditions: in vivo. Format: ADME, organism-based.
The target of data set [6] is T1, Phosphatidylinositol 4,5-bisphosphate 3-kinase catalytic subunit beta isoform. Put plainly: Inhibition of PI3Kbeta human in PTEN-null MDA-MB-468 cells assessed as reduction of AKT phosphorylation at Ser 473 in presence of serum. Format: cell-based.
Data set [7] can be described thus: Permeability of the compound across MDCK cells. The format is ADME, cell-based, Canis lupus familiaris. The note with it: dog, read-out: permeability.
The target of data set [8] is T1, Phosphatidylinositol 4,5-bisphosphate 3-kinase catalytic subunit beta isoform. The data set is described as follows: Inhibition of PI3Kbeta human in PTEN wild type HCC1954 cells assessed as reduction of AKT phosphorylation at Ser 473. Format: cell-based.
A short description of data set [9]: Plasma protein binding in rat serum by equilibrium dialysis. The format is ADME, cell-free. The note with it: read-out: PPB (converted).
A short description of data set [10]: Clearance in rat. Format: ADME, organism-based. Conditions: in vivo.
For data set [11], the target named is T2, Phosphatidylinositol 4,5-bisphosphate 3-kinase catalytic subunit delta isoform (Homo sapiens, UniProt O00329).
T2 sequence (O00329 whole entry): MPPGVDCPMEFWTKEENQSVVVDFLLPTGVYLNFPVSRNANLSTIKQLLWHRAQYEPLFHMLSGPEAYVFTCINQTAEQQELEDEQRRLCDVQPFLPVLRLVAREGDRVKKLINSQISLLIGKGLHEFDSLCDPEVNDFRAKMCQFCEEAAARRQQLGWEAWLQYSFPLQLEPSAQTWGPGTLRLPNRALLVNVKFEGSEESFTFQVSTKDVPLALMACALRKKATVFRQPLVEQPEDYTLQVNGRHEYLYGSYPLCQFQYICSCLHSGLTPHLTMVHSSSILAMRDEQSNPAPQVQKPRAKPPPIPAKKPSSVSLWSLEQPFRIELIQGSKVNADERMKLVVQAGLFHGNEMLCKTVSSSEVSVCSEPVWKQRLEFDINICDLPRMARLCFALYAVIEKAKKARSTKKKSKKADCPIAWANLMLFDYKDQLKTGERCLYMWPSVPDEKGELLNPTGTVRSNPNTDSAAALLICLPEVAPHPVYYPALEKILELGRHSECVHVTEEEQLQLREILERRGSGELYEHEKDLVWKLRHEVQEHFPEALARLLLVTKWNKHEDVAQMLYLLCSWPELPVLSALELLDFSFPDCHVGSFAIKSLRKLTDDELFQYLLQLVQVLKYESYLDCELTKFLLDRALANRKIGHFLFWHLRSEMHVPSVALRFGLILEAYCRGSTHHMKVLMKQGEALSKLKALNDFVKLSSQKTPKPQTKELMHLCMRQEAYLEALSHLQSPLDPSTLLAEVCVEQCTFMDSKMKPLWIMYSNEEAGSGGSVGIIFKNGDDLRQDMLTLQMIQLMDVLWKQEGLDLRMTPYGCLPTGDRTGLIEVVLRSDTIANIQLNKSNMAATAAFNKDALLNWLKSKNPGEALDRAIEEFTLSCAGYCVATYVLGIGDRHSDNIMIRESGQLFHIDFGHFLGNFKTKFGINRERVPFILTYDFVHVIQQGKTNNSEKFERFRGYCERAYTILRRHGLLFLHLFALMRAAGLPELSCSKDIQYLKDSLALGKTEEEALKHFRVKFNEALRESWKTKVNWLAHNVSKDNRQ
Put plainly: Inhibition of PI3Kdelta (unknown origin).

A short description of data set [12]: Plasma protein binding in mouse serum by equilibrium dialysis. Format: ADME, cell-free. Conditions: read-out: PPB (converted).
The target in data set [13] is T1, Phosphatidylinositol 4,5-bisphosphate 3-kinase catalytic subunit beta isoform. Put plainly: Inhibition of PI3Kbeta human in PTEN-null MDA-MB-468 cells assessed as reduction of AKT phosphorylation at Ser 473 in absence of serum. Format: cell-based.
Data set [14] has as its target Phosphatidylinositol 4,5-bisphosphate 3-kinase catalytic subunit alpha isoform (Homo sapiens, UniProt P42336). The data set is described as follows: Inhibition of PI3Kalpha (unknown origin).
Data set [15] is described as follows: Aqueous solubility of the compound. Format: physicochemical.
Data set [16] is described as follows: Clearance in mouse. The note with it: in vivo. Format: ADME, organism-based.
A short description of data set [17]: Oral bioavailability mouse. Format: ADME, organism-based. The note with it: in vivo.

Values after ≈ are worked out from the molar mass of the structure shown.

Sequence of Phosphatidylinositol 4,5-bisphosphate 3-kinase catalytic subunit alpha isoform (P42336 whole entry, canonical isoform): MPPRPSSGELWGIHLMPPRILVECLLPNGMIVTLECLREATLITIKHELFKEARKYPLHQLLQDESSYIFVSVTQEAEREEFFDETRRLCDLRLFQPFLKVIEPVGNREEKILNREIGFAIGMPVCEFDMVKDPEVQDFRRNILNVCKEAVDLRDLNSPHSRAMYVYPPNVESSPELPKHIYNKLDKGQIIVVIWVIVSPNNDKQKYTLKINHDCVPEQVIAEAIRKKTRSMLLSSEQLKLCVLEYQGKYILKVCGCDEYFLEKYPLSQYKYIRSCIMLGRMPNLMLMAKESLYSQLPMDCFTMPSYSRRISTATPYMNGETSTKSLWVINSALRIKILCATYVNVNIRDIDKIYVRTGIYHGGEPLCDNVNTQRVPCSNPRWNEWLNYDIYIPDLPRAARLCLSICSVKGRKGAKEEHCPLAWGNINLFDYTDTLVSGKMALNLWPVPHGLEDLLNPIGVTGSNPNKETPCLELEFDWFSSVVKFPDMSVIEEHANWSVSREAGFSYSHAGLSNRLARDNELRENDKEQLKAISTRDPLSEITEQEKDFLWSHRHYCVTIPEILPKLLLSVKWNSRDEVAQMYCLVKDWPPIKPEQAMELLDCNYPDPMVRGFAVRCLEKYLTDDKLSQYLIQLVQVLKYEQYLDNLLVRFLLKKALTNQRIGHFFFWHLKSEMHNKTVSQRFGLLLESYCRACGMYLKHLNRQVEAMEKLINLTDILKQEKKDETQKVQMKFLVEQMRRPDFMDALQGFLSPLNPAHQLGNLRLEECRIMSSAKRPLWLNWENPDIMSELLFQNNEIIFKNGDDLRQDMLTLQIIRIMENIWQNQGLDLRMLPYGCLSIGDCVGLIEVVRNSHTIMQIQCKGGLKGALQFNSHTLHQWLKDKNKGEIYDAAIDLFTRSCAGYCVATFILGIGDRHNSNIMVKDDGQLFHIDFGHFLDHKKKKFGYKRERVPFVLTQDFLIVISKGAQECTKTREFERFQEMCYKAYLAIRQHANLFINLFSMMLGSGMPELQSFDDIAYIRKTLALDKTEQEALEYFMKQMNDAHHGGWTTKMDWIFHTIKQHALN
Sequence of Phosphatidylinositol 4,5-bisphosphate 3-kinase catalytic subunit gamma isoform (P48736 whole entry, canonical isoform): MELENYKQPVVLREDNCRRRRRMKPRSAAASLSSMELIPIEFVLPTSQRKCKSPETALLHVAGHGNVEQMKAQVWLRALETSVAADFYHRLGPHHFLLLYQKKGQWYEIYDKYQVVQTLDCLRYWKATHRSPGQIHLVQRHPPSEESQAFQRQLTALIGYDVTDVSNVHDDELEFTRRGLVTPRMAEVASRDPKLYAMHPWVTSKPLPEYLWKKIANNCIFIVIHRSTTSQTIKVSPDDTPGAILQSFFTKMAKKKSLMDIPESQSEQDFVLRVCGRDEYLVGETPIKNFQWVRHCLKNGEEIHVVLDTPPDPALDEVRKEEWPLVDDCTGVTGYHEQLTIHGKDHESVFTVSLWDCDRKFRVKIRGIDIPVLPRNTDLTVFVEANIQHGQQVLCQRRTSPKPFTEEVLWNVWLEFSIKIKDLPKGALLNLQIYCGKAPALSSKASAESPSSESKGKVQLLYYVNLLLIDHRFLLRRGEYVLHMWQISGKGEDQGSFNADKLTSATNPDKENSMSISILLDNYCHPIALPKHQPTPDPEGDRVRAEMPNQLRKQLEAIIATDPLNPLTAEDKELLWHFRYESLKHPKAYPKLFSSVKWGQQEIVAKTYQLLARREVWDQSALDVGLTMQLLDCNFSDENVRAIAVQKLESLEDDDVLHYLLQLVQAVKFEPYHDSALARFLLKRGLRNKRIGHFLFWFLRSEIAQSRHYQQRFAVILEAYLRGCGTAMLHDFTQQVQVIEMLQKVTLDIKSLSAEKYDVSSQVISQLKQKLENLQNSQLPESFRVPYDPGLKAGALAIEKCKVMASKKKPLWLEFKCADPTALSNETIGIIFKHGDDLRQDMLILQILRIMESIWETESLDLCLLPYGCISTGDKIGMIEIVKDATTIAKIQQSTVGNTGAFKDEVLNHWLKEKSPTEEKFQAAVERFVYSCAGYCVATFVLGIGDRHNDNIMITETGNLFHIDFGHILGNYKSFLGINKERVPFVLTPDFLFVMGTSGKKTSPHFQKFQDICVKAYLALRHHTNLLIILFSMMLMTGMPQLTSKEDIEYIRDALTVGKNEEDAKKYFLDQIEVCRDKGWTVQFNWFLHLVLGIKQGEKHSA

For `Cc1nn2c(O)cc(N3CCOCC3)nc2c1Cc1cccc(C(F)(F)F)c1C`, the results for the clearance in data set [1], in data set [10] and in [16] were 0.33 mL/min/kg, 6.5 mL/min/kg and 3.7 mL/min/kg, respectively. The IC50 in [2] was 316 nM; in data set [4], 0.398 nM; in data set [11], 25.1 nM; in data set [14], 316 nM. Moreover, the fraction unbound in data set [3], in [9] and in data set [12] was no more than 0.001 in each case. In addition, the AUC/dose in [5] is 2321 ng·h/mL/mg/kg. The results for the EC50 in [6], in data set [8] and in data set [13] were 1580 nM, greater than 15800 nM and 31.6 nM, respectively. For the same compound, in [7], the Papp is 75.3 ×10⁻⁶ cm/s. This compound also had a solubility in data set [15] of 134 µM (≈ 54.5 µg/mL). Besides, the bioavailability in data set [17] is 51%.

What is called clearance is the rate of elimination divided by the concentration. Usually IC50 stands for the concentration that inhibits the measured activity by half. One may read the EC50 as the concentration that produces a half-maximal response. In general, solubility refers to how much of the substance goes into solution per volume. As a reminder, the bioavailability is the share of a dose that reaches the circulation, judged against a reference dose that is usually intravenous.
